Columns and labels:
[1] = Fluorescence quantum yield versus Alexa Fluor 555 reference; type: physicochemical; conditions: highest in FBS among DMSO, MeOH, PBS
Description: (§1) Absorbance and fluorescence spectra of the FM fluorophores were measured in PBS and absolute methanol (MeOH) using fiber-optic HR2000 (200-1100 nm) and USB2000FL (350-1000 nm) spectrometers (Ocean Optics, Dunedin, Fla.), respectively. Fluorescence excitation was provided by a 2 mW, 532 nm laser diode. The fluorescence and absorbance spectra of FORMULA II and FORMULA IA were collected in dimethyl sulfoxide (DMSO) and fetal bovine serum (FBS), as well as MeOH and PBS. The quantum yield of FORMULA II and FORMULA IA in DMSO, MeOH, FBS and PBS was measured by comparing the integrated fluorescence emission of the fluorophores in each solvent to the emission of Alexa Fluor 555 (Invitrogen) in PBS (quantum yield=10%) as a reference standard under conditions of matched absorbance at the excitation wavelength. The LogD of each FM fluorophore at pH 7.5 was calculated using Marvin 5.0.3 software (ChemAxon, Budapest, Hungary).

intervertebral discs = assay: Two-wavelength imaging of resected spine with Pam800 and FORMULA IA; type: in vivo, Sprague-Dawley rat; conditions: rat
Description: Imaging was carried out at near infrared wavelenghts using a 400- to 700-nm “white” light (0.5 mW/cm^2) and a 725- to 775-nm NIR fluorescence excitation light (5 mW/cm^2). Fluorescence images were collected using exposure times ranging from 500 to 2000 msec. All images collected for comparison between vehicle-injected control animals and FM fluorophore-injected animals had the same exposure time and normalization. Color video images were collected on a separate optical channel using custom designed software. The excitation and emission LEDs and filter used for the FM fluorophores and Pam800 in the intraoperative imaging system are described as follows. For fluorescence excitation of FM 1-43, FM 2-10, FM 1-43FX and Formula IA, sixty 5-mm 470 nm LEDs (Epitex, Inc., Kyoto, Japan) fitted with 470±20 nm band pass (BP) excitation filters (Chroma Technology, Rockingham, Vt.) in custom holders were used, which produced a fluence rate on the imaging surface of 0.56 mW/cm^2. For fluorescence excitation of Formula II, FM 4-64, FM 4-64FX and FM 5-95, sixty 5-mm 535 nm LEDs fitted with 525±25 nm BP excitation filters were used, which produced a fluence rate on the imaging surface of 0.34 mW/cm^2. A 610±38 nm BP filter was used to detect fluorescence emission of FM 1-43, FM 2-10, Formula II, FM 1-43FX and Formula IA. […]

[2] = Absorbance and fluorescence spectra of FM fluorophores in solvents; type: physicochemical
Description: as §1

fluorescence quantum yield, times higher in FBS [1]: 5 times
Em nm (MeOH) ([2]; emission maximum in MeOH): 624 nm
Em nm (PBS) ([2]; emission maximum in PBS): 628 nm
Ex nm (MeOH) ([2]; excitation maximum in MeOH): 510 nm
Ex nm (PBS) ([2]; excitation maximum in PBS): 497 nm
SMILES: CCCCN(CCCC)c1ccc(/C=C/c2cc[n+](CCC[N+](C)(C)C)cc2)cc1.[Br-].[Br-] [Formula IA, (E)-4-(4-(dibutylamino)styryl)-1-(3-(trimethylammonio)propyl)pyridinium dibromide]
overlap of signals with Pam800 (bone) (intervertebral discs; 7.5 nmol Pam800 16 h and 2 mg/kg Formula IA 4 h post-IV): no overlap
specificity of fluorescence signal in the spine (intervertebral discs; 2 mg/kg IV, 4 h, sagittal spine and disc cross-section): specific for the intervertebral discs
